Laboratory results reported in article PMC12249917, “Novel Au(I)- and Ag(I)-NHC Complexes with N-Boc-Protected Proline as Potential Candidates for Neurodegenerative Disorders” (International Journal of Molecular Sciences, 2025).
Where two headings read alike, the source gives them in different places.

What was measured:
[1] = biological target: T1, hMAO-A (Homo sapiens, UniProt P21397); test: hMAO-A inhibitory activity; assay type: biochemical
T1 sequence (P21397 1-527): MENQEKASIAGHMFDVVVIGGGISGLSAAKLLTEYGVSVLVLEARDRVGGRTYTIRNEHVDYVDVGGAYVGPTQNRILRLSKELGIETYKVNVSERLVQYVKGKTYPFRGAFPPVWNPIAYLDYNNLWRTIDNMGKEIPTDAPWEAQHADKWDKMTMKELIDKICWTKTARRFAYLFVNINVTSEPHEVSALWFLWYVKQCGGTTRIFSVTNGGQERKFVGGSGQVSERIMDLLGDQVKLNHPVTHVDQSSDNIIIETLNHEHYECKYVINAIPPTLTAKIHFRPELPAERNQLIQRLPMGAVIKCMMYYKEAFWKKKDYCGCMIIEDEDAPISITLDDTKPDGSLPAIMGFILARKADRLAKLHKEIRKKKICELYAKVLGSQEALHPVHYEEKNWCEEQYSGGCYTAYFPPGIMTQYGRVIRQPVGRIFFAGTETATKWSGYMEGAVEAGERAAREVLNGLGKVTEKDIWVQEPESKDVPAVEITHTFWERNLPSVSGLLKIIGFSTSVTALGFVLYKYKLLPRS
Procedure: (§1) Altered levels of MAO-A/B are associated with the degeneration of neurotransmitter biogenic amines such as serotonin, noradrenaline, and dopamine and are implicated in several diseases, such as depression, cancer, PD, and AD [27]. With this in mind, we explored the potential of these complexes in inhibiting human MAO (hMAO) isoforms.
(§2) The inhibitory activity of the gold and silver complexes against hMAO-A and hMAO-B was evaluated using a previously published protocol. […] Data analysis was performed using GraphPad PRISM 9 (GraphPad Software®, San Diego, CA, USA). IC50 values were determined from the dose–response curves and were presented as the mean ± SD of three independent experiments, each conducted in triplicate.

[2] = biological target: electric eel acetylcholinesterase (eeAChE) (Electrophorus electricus, UniProt O42275)
Procedure: (§3) The enzyme-inhibiting properties of the Au and Ag complexes against electric eel acetylcholinesterase (eeAChE) and equine butyrylcholinesterase (eqBChE) were assessed via a modified Ellman assay. […] A buffer-only control was included. The inhibition potency (IC50) was calculated from triplicate dose–response data, presented as the mean ± SD.

[3] = biological target: equine butyrylcholinesterase (eqBChE) (Equus caballus, UniProt P81908)
Procedure: as §3

[4] = system: NO production in LPS-stimulated RAW 264.7 murine macrophages (iNOS); test: Griess assay, NO production (iNOS) in LPS-stimulated RAW 264.7 macrophages; assay type: cell-based; details: for inhibition of NO production: 5 µM
Procedure: As a positive control, the nonsteroidal anti-inflammatory drug (NSAID) Indomethacin (Ind) was used.
Then, the cell culture medium was combined with an equal volume of Griess reagent at 40 mg/mL (ratio 1:1), and after a 30 min incubation with agitation, the optical density was measured at 540 nm. The levels of NO vs. LPS were calculated from the absorbance measurements using the following formula:(1) INO vs LPS (%)=ABSLPS−ABSSample/ABSLPS∗100 where ABSLPS represents the average absorbance of cells treated with LPS alone, and ABSsample represents the average absorbance of cells treated with both LPS and the tested complexes or Indomethacin.
NO production was induced by LPS (1 µg/mL). […] Salmon histograms: MTT assays performed in same experimental conditions in order to verify effect on RAW 264.7 cells’ viability of Indomethacin and tested complexes. Data were plotted as % of cell viability with respect to viability with LPS-only treatment (1 µg/mL).

[5] = biological target: T2, hMAO-B (Homo sapiens, UniProt P27338); assay type: biochemical; details: for IC50: mean ± S.D., three experiments in triplicate
T2 sequence (P27338 1-520): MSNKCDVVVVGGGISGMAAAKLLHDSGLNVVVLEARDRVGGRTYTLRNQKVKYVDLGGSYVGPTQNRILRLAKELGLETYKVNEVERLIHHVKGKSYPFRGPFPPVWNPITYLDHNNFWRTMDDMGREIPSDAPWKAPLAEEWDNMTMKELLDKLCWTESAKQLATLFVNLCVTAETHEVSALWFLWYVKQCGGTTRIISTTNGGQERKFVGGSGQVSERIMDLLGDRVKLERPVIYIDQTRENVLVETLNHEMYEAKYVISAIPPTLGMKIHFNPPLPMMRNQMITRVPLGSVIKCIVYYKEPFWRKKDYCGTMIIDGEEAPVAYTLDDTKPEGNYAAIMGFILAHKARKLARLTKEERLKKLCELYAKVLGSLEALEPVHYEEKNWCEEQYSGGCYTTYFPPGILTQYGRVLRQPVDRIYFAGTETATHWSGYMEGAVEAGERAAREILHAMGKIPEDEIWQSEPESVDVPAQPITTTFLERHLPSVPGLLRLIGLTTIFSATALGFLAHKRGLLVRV
Procedure: as §1, §2

[6] = system: RAW 264.7 cells; test: MTT cell viability, RAW 264.7; assay type: cell-based, murine; details: RAW 264.7, MTT, 24 h
Procedure: 3-(4,5-dimethylthiazol-2-yl)-2,5-diphenyl-2H-tetrazolium bromide (MTT) was added to the cells in order to measure the cell viability at 24 h, as previously reported. IC50 values were determined from the dose–response curves for both NO inhibition (%) and the cell viability (%) using GraphPad Prism 9 software (GraphPad Software, La Jolla, CA, USA) and were presented as the mean ± SD of three independent experiments, each conducted in triplicate.
Figure 2 Brown histograms: Anti-inflammatory activity in terms of NO production inhibition (%), measured in vitro using RAW 264.7 murine macrophages. NO production was induced by LPS (1 µg/mL). Data were plotted as % NO inhibition with respect to inhibition with LPS-only treatment. Salmon histograms: MTT assays performed in same experimental conditions in order to verify effect on RAW 264.7 cells’ viability of Indomethacin and tested complexes. Data were plotted as % of cell viability with respect to viability with LPS-only treatment (1 µg/mL). Indomethacin (Ind) was used at concentration of 25 µM, while all other complexes were used at 5 µM, for 24 h. Bars ± SDs are shown (n = 3). ** p < 0.01 and **** p < 0.0001 for complex 3bP and Ind vs. LPS only; not significant (n.s.) where not indicated.

[7] = system: intracellular ROS production in 3T3-L1 murine fibroblasts; test: Intracellular ROS (H2DCF-DA) in menadione-treated 3T3-L1 fibroblasts; assay type: cell-based; details: menadione 25 µM, 15 min; for ROS production reduced to, compared to Men treatment alone: 24 h
Procedure: N-acetyl-cysteine (NAC), a powerful antioxidant, was used as a positive control.
The antioxidant capacity of the Au and Ag complexes was evaluated in 3T3-L1 murine fibroblasts by assessing the intracellular reactive oxygen species (ROS) levels using a DCFH2-DA assay, following a previously established method [36]. The cells were seeded in 96-well plates and incubated with the tested complexes at concentrations of between 0.1 and 20 µM for a 24 h period. […] N-acetylcysteine (NAC), a recognized antioxidant, served as a positive control at 20 mM. […] The % of ROS production inhibition (IROS) vs. that of the menadione-treated cells was calculated using the following formula:(2) IROS vs Men (%)=FMen−FSample/FMen∗100 where FMen represents the average fluorescence of the cells treated with menadione alone, and Fsample represents the average fluorescence of the cells treated with both menadione and the tested complexes or NAC.
Data were plotted as % ROS inhibition with respect to inhibition with Men-only treatment.

[8] = mean ± S.D., three experiments in triplicate, read-out: IC50 (µM) hMAO-A
[9] = read-out: IC50 (µM) eeAChE, mean ± S.D., three experiments in triplicate
[10] = read-out: IC50 (µM) eqBChE, mean ± S.D., three experiments in triplicate
[11] = LPS 1 µg/mL, RAW 264.7, 24 h, read-out: IC50 (µM) NO Inhibition
[12] = Table S2, experimentally derived IC50, read-out: IC50 (μM), hMAOA (Table S2)
[13] = read-out: IC50 (μM), hBChE (Table S1), Table S1, experimentally derived IC50, column headed hBChE
[14] = read-out: IC50 (μM), hAChE (Table S1), Table S1, experimentally derived IC50, column headed hAChE

Sequence of electric eel acetylcholinesterase (eeAChE) (O42275 24-633): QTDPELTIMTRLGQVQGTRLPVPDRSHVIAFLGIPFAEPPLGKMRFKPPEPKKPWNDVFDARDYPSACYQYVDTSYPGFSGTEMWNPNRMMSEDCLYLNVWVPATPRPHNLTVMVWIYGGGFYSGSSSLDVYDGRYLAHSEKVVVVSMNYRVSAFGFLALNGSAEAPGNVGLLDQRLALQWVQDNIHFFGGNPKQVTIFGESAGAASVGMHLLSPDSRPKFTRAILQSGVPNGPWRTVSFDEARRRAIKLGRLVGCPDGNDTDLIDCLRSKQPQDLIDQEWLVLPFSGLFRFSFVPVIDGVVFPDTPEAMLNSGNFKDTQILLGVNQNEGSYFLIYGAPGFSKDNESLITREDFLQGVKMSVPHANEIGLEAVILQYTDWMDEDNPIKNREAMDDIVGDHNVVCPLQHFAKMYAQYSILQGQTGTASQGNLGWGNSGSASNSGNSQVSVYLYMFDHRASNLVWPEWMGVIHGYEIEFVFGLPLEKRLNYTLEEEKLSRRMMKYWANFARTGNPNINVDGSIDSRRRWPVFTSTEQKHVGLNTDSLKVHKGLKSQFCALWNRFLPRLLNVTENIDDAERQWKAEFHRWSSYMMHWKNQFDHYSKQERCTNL
Sequence of equine butyrylcholinesterase (eqBChE) (P81908 whole entry): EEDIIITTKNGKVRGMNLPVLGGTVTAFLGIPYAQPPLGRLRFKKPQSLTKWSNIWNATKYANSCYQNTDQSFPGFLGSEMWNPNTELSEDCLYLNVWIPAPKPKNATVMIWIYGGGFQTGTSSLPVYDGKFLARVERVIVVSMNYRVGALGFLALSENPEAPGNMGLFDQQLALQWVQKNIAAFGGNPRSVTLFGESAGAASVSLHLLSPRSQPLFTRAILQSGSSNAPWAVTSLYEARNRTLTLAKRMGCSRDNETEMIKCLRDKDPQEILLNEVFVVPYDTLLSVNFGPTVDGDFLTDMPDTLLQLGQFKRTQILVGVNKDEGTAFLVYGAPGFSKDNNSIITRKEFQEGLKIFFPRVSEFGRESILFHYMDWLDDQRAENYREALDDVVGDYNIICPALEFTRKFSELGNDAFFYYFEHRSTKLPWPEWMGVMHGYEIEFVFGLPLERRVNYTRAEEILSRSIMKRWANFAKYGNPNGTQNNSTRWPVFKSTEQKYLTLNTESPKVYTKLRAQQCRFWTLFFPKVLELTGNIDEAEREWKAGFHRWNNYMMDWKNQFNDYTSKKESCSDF

| SMILES | IC50 [1, 8] [µM] | IC50 [2, 9] [µM] | IC50 [3, 10] [µM] | IC50 [4, 11] [µM] | IC50 [5] [µM] | IC50 [6] [µM] | SI, eqBChE selectivity index = IC50(eeAChE)/IC50(eqBChE) [3] | SI, hMAO-B selectivity index = IC50(hMAO-A)/IC50(hMAO-B) [5] | IC50 [1, 12] [µM] | IC50 [3, 13] [µM] | IC50 [2, 14] [µM] | inhibition of NO production ([4]; 24 h, vs LPS-only treatment) | IC50 ([4]; Table S3, experimentally derived IC50, read-out: IC50 (μM), iNOS (Table S3)) [µM] | ROS production reduced to, compared to Men treatment alone ([7]; 1 µM) | ROS production reduced to, compared to Men treatment alone ([7]; 10 µM) | inhibition at 25 µM ([4]; Mus musculus, RAW264.7, 25 µM, 24 h, vs LPS-only treatment) [%] | IC50 ([4]; Mus musculus, RAW264.7, LPS 1 µg/mL, RAW 264.7, 24 h, read-out: IC50 (µM) NO Inhibition) [µM] | IC50 ([6]; Mus musculus, RAW264.7) [µM] | ROS formation reduced to [7] |
| --- | --- | --- | --- | --- | --- | --- | --- | --- | --- | --- | --- | --- | --- | --- | --- | --- | --- | --- | --- |
| C[n+]1ccn(CC(O)c2ccccc2)[c]1[Ag-][O]C(=O)[C@@H]1CCCN1C(=O)OC(C)(C)C (some centres unmarked) [1aP] | > 25 | > 25 | > 25 | > 50 | > 25 | > 50 |  |  |  |  |  |  |  |  |  |  |  |  |  |
| C[n+]1ccn(CC(O)c2ccccc2)[c]1[Au-][O]C(=O)[C@@H]1CCCN1C(=O)OC(C)(C)C (some centres unmarked) [1bP] | 1.32 ± 0.02 | 18.4 ± 1.43 | 6.19 ± 0.91 | > 50 | 3.78 ± 0.16 | > 50 | 2.97 | 0.35 |  |  |  |  |  |  |  |  |  |  |  |
| C[n+]1c(Cl)c(Cl)n(CC(O)c2ccccc2)[c]1[Ag-][O]C(=O)[C@@H]1CCCN1C(=O)OC(C)(C)C (some centres unmarked) [2aP] | 15 ± 1.02 | > 25 | 18.2 ± 2.4 | > 50 | 9.82 ± 0.84 | > 50 | >1.37 | 1.53 | 15 ± 0.9 | 18.2 ± 0.02 |  |  |  |  |  |  |  |  |  |
| C[n+]1c(Cl)c(Cl)n(CC(O)c2ccccc2)[c]1[Au-][O]C(=O)[C@@H]1CCCN1C(=O)OC(C)(C)C (some centres unmarked) [2bP] | 0.72 ± 0.02 | 4.68 ± 0.47 | 3.14 ± 0.33 | 32.3 ± 1.82 | 1.94 ± 0.09 | > 50 | 1.49 | 0.37 |  | 3.1 ± 0.02 | 4.7 ± 0.02 |  |  |  |  |  |  |  |  |
| C[n+]1c(-c2ccccc2)c(-c2ccccc2)n(CC(O)c2ccccc2)[c]1[Ag-][O]C(=O)[C@@H]1CCCN1C(=O)OC(C)(C)C (some centres unmarked) [3aP] | 25 ± 2.95 | > 25 | 17.4 ± 0.98 | 30.9 ± 1.74 | > 25 | > 50 | >1.44 |  |  |  |  | approximately 8% |  |  |  |  |  |  |  |
| C[n+]1c(-c2ccccc2)c(-c2ccccc2)n(CC(O)c2ccccc2)[c]1[Au-][O]C(=O)[C@@H]1CCCN1C(=O)OC(C)(C)C (some centres unmarked) [3bP] | 1.84 ± 0.18 | 5.89 ± 0.56 | > 25 | 4.88 ± 0.58 | 4.75 ± 0.75 | 20.3 ± 1.26 |  | 0.39 |  |  |  | about 52% | 4.9 ± 0.5 | approximately 70% |  |  |  |  |  |
| C[n+]1[c]([Ag-][O]C(=O)[C@@H]2CCCN2C(=O)OC(C)(C)C)n(CC(O)c2ccccc2)c2ccccc21 (some centres unmarked) [4aP] | 3.32 ± 0.15 | 14 ± 0.72 | 5.19 ± 0.95 | > 50 | 10.4 ± 1.95 | > 50 | 2.68 | 0.32 | 3.3 ± 0.01 | 5.2 ± 0.05 | 13.9 ± 0.01 |  |  |  |  |  |  |  |  |
| C[n+]1[c]([Au-][O]C(=O)[C@@H]2CCCN2C(=O)OC(C)(C)C)n(CC(O)c2ccccc2)c2ccccc21 (some centres unmarked) [4bP] | 0.0713 | 3.72 ± 0.44 | 0.45 ± 0.06 | 13.1 ± 0.92 | 2.1 ± 0.2 | 12.1 ± 1.03 | 8.27 | 0.03 |  |  | 3.7 ± 0.02 |  |  |  | approximately 60% |  |  |  |  |
| COc1ccc2c(c1)c(CC(=O)O)c(C)n2C(=O)c1ccc(Cl)cc1 [Indomethacin, reference compound] |  |  |  |  |  |  |  |  |  |  |  |  |  |  |  | ~20 | > 50 | > 50 |  |
| CC(=O)N[C@@H](CS)C(=O)O [NAC, N-acetyl-cysteine, reference compound] |  |  |  |  |  |  |  |  |  |  |  |  |  |  |  |  |  |  | approximately 70% |
